Laboratory results taken from patent US6689811B2, “Method of using caffeic acid phenethyl ester and analogs thereof as radiation sensitizers” (Wake Forest University, priority 2001, dated 2004).

Assays:
[1] = system: Akt phosphorylation (Akt-Pser473); test: Akt phosphorylation immunoblot in PC-3 cells treated with CAPE; assay type: cell-based
From the text: (§1) 35(9): p. 790; Giri, D. and M. Ittmann, Hum Pathol, 1999. 30(4): p. 419-24; Davies, M. A., et al., Cancer Res, 1999. 59(11): p. 2551-6). Since PTEN is mutated in PC-3 cells, Akt phosphorylation levels are elevated compared to normal prostatic cells, and therefore PC-3 cells are a good model to study the regulation of Akt by CAPE and propolis.

HT-29 xenograft tumors = test: HT-29 tumor xenografts on the flanks of nude mice, CAPE with or without IR; assay type: in vivo
Procedure: FIG. 3 is a photograph showing representative animals where CAPE radiosensitizes HT-29 xenograft tumors to IR. HT-29 cells were grown as tumor xenografts on the flanks of nude mice. When the tumors reached approximately 80 mm^3, one group of mice was treated with 0.5 ml of ethanol (EtOH) (0.1%) while the other group was treated with a single injection of CAPE (100 μg/kg). Twenty-four hours later, the tumors on the left flanks were given a single dose of IR (5 Gy). The animals were returned to their cages and tumor measurements were taken every 7 days for the following 4 weeks. The animal on the left was treated with ethanol (EtOH) (the carrier for CAPE), while the animal on the right was treated with 50 mg/kg CAPE. The tumors on the left side of the animal (right side of the picture) was treated with ionizing radiation (IR) (5Gy). Pictures were taken 4 weeks following IR. FIG. 4 is graphical representation of results from all tumors. Control (N=7), CAPE (N=5), IR (N=6) and CAPE +IR (N=4). Error bars represent ±S.E.M. The different number of tumors measured reflects the failure of some of the tumors to grow during the first week prior to treatment. FIG. 5 is a bar graph illustrating the number of days required for a tumor to triple in volume. […] FIG. 4 illustrates that tumors treated with both CAPE and IR were reduced in size by approximately 90% 4 weeks after treatment.

HT-29 cells = test: Clonogenic survival assay with CAPE and ionizing radiation, HT-29 cells; assay type: cell-based
Procedure: (§2) FIGS. 2A-B are graphs illustrating that CAPE sensitizes colorectal carcinoma cells RKO (A) and HT-29 cells (B) to treatments with IR. RKO (A) and HT-29 (B) cells were treated with CAPE (5 μg/ml) for the indicated times, irradiated and plated for clonogenic survival assays. CAPE treatment alone induced 10-20% reduction in clonogenic survival. Results are normalized to account for this reduction. We have also tested the ability of CAPE to sensitize cells to the cytotoxic effects of ionizing radiation. […] The Dose-enhancement ratio (DER) values at survival fraction (SF) 0.1 for pretreatment with CAPE for 24 h were 1.81 for RKO cells and a 1.68 for HT-29 cells. The radiosensitizing effect of CAPE was even more pronounced in vivo.

[2] = system: colorectal carcinoma cells; test: Survival fraction of colorectal carcinoma cells, oxaliplatin versus CAPE and oxaliplatin; assay type: cell-based; settings: regimen of CAPE and oxaliplatin compared to oxaliplatin alone (FIG. 6)
From the text: FIG. 6 is a graph depicting the survival fraction of colorectal carcinoma cells when the cells are given a regimen of oxaliplatin as compared to a regimen of CAPE and oxaliplatin. As stated above, CAPE may be combined with other cancer therapies. One such therapy includes the use of oxaliplatin. Oxaliplatin is a chemotherapy drug, and also an antineoplastic agent, that is generally used in late-stage clinical development for colorectal cancer. Oxaliplatin is a platinum chemotherapy drug, similar to cisplatin and carboplatin. At the center of the drug molecule is an atom of platinum. Oxaliplatin is generally a clear liquid that is given through a drip into a vein (intravenous infusion). The infusion usually takes about 2 hours. Oxaliplatin can be given every 2 weeks or every 3 weeks as a course of treatment.

[3] = system: Akt phosphorylation (Akt-Pser473); test: Akt phosphorylation immunoblot in RKO cells treated with CAPE; assay type: cell-based
Procedure: RKO cells were treated with low serum (LS) (0.1%) for 12 h, or low serum for 12 h followed by replacement of media with 10% serum (LS+S), in the absence (EtOH) or presence of CAPE. Two different exposures (light, dark) of the immunoblot using the anti-phosphoAkt specific antibody are shown.
as §1
Since Akt phosphorylation levels reflect a balance between active phosphorylation (mainly by PI-3 kinase) and dephosphorylation (by a yet unidentified phosphatase), the decrease in Akt phosphorylation could be an activation of a phosphatase rather than inhibition of a kinase. […] Thus, we performed CAPE treatments in the presence of high (10%) and low (0.1%) serum levels.

RKO cells = test: Clonogenic survival assay with CAPE and ionizing radiation, RKO cells; assay type: cell-based
Procedure: as §2

[4] = immunoblot with anti-Akt antibody (FIG. 1A)
[5] = increasing doses of CAPE, immunoblot (FIG. 1A)
[6] = pretreatment with CAPE for 24 h (5 μg/ml), then IR

O=C(/C=C/c1ccc(O)c(O)c1)OCCc1ccccc1 [CAPE, caffeic acid phenethyl ester]
levels of Akt (anti-Akt antibody) [1, 4]: remain unchanged | levels of Akt phosphorylation (Akt-Pser473) [1, 5]: reduces the levels of Akt phosphorylation | number of days required for tumor to triple in volume, CAPE plus IR (HT-29 xenograft tumors; CAPE combined with IR (FIG. 5)): failed to triple in volume | effect on tumor growth, CAPE alone (HT-29 xenograft tumors; single dose (50 mg/kg) CAPE, no IR, HT-29 xenografts in nude mice): minimal effect on tumor growth | reduction in tumor size, CAPE and IR (HT-29 xenograft tumors; single injection of CAPE, IR 5 Gy 24 h later, 4 weeks after treatment (FIG. 4)): approximately 90% | reduction in clonogenic survival by CAPE treatment alone (HT-29 cells; CAPE 5 μg/ml, no IR): 10-20% | sensitization to IR treatments (HT-29 cells; pretreatment with CAPE for 12 h or 24 h (FIG. 2B)): significant sensitization | Dose-enhancement ratio (DER) at survival fraction (SF) 0.1 (HT-29 cells; [6]): 1.68 | survival fraction of cancerous cells, CAPE plus oxaliplatin [2]: decrease in the survival fraction | levels of Akt (anti-Akt antibody) [3, 4]: remain unchanged | levels of Akt phosphorylation (Akt-Pser473) [3, 5]: reduces the levels of Akt phosphorylation | rephosphorylation of Akt when serum was added back ([3]; low serum 12 h then 10% serum, in presence of CAPE (FIG. 1B)): did not inhibit rephosphorylation of Akt | Akt phosphorylation with CAPE in low serum ([3]; low serum (0.1%) for 12 h plus CAPE (FIG. 1B)): undetectable levels | reduction in clonogenic survival by CAPE treatment alone (RKO cells; CAPE 5 μg/ml, no IR): 10-20% | sensitization to IR treatments (RKO cells; pretreatment with CAPE for 12 h or 24 h (FIG. 2A)): significant sensitization | Dose-enhancement ratio (DER) at survival fraction (SF) 0.1 (RKO cells; [6]): 1.81
